Results from US20170165274A1, “COMPOSITION” (SHIELD TX (UK) LTD., priority 2014, published 2017).
Like-named read-outs stand apart in the source and are kept apart here.

Legend:
grazed skin [1] = test: Short term exposure on grazed skin in two volunteers (irritation); settings: 10^−4 M, short term (5 mins) exposure
nasal mucosa [2] = test: Contact with the nasal mucosa (irritation); settings: contact for 10 minute periods
nasal mucosa [3] = settings: in vivo
grazed skin [4] = settings: human, in vivo
[5] = Stability of iron hydroxypyrones in liquid as a function of pH; format: physicochemical; settings: acid pH
Text: There is another advantage of a liquid formulation of a ferric tri (hydroxypyrone) in that there is no need to have an acidified preparation for either efficacy or stability. […] This is a significant difference between ferric pyrones in solution and ferrous salts used in medicine.
Unlike the ferrous products a maximum stability of the liquid ferric pyrones and ferrous products containing maltol is achieved in the pH range 5.5-8. With this knowledge the formulations developed require ingredients suited to this constraint and also standardisation of colour and taste for patient acceptability. At higher concentrations of active a suspension formulation may be preferred. Furthermore the excipients must not reduce the excellent bio-availability of iron from iron pyrone formulations.

Stability behaviour in liquid [5]	Structure (SMILES)	Irritation of grazed skin (grazed skin [1])	Irritancy to nasal mucosa (nasal mucosa [2])	Irritancy to nasal mucosa (nasal mucosa [3])	Irritation of grazed skin (grazed skin [4])
–	O=S(=O)([O-])[O-].[Fe+2] [FeS04, iron sulphate]	did not induce irritation	neither iron tri-maltol or iron sulphate in contact with the nasal mucosa for 10 minute periods proved to be irritant	–	–
disproportionates at acid pH values	Cc1occc(=O)c1[O-].Cc1occc(=O)c1[O-].Cc1occc(=O)c1[O-].[Fe+3] [Fe[Maltol]3, ferric trimaltol]	–	–	neither iron tri-maltol or iron sulphate in contact with the nasal mucosa for 10 minute periods proved to be irritant	did not induce irritation
